The source made the active and inactive calls.

Series [1] deals with T1, Bifunctional epoxide hydrolase 2 (Homo sapiens, UniProt P34913).
T1 sequence (P34913 whole entry): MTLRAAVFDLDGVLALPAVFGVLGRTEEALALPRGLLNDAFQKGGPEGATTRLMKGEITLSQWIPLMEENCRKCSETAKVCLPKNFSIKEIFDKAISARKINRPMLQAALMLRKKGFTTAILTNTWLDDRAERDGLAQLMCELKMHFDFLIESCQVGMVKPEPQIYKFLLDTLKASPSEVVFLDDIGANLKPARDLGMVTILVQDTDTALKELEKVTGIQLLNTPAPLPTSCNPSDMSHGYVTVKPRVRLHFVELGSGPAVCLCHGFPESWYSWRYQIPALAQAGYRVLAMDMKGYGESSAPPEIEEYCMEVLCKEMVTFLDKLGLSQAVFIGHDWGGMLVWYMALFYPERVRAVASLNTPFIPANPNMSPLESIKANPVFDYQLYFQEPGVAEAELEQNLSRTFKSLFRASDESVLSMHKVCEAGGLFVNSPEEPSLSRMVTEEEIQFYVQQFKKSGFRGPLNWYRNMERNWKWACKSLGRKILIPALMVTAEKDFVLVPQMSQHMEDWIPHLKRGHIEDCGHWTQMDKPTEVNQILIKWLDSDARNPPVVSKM
Kind of series: Inhibition of recombinant human full length sEH assessed as reduction in 6-methoxy-2-naphthaldehyde formation using PHOME as substrate preincubated for 30 to 45 mins followed by substrate addition and measured after 30 to 45 mins by fluorescence assay.

The target in series [2] is T2, Peroxisome proliferator-activated receptor gamma (Homo sapiens, UniProt P37231).
T2 sequence (P37231 whole entry): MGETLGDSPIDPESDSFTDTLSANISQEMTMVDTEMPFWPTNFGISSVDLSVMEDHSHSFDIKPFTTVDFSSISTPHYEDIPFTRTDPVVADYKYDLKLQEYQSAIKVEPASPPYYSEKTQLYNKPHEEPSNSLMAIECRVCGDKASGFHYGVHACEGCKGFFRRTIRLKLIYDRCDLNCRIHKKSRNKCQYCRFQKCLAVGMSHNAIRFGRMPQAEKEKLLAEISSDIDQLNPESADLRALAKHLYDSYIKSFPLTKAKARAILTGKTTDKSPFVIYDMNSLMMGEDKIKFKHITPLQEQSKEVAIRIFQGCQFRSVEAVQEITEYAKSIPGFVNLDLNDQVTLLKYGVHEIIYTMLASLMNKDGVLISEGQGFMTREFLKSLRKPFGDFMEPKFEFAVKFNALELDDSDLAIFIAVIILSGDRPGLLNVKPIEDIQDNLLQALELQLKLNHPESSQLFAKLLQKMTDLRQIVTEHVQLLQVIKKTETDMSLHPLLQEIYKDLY
The experiment in a line: Partial agonist activity at GAL4-tagged human PPARgamma LBD expressed in HEK293T cells incubated for 12 to 14 hrs by dual-Glo luciferase assay. In kind it is cell-based.

Series [3] has as its target T3, Peroxisome proliferator-activated receptor gamma (Homo sapiens) (UniProt P37231).
T3 sequence (whole entry): T2 sequence (P37231 whole entry)
Kind of series: Partial agonist activity at GAL4-tagged human PPARgamma LBD expressed in HEK293T cells at 10 uM incubated for 12 to 14 hrs by dual-Glo luciferase assay. To be noted: time 12-14 hrs. It is filed as cell-based.

Series [4] is described as follows: Stability of compound in BALB/c mouse liver microsomes assessed as half life at 10 uM preincubated for 5 mins in presence of NADPH regenerating system followed by microsomal addition and measured upto 60 mins by HPLC analysis. In kind it is ADME, Microsome. To be noted: time 65 min. (Microsomes from liver hold many membrane-bound enzymes, among them those of drug oxidation.)

Series [5] is described as follows: Stability of compound in human liver microsomes assessed as half life at 10 uM preincubated for 5 mins in presence of NADPH regenerating system followed by microsomal addition and measured upto 60 mins by HPLC analysis. It is filed as ADME, Microsome. The settings on record: time 65 min.
The nature of series [6]: Stability of compound in Sprague-Dawley rat liver microsomes assessed as half life at 10 uM preincubated for 5 mins in presence of NADPH regenerating system followed by microsomal addition and measured upto 60 mins by HPLC analysis. It is filed as ADME, Microsome. The settings on record: time 65 min.

As to `Nc1ccc(CNC(=O)c2ccc3c(ccn3Cc3cccc(F)c3)c2)c(C(F)(F)F)c1`, in series [1], the IC50 (commonly the concentration at which inhibition is half-maximal) amounted to 7 nM.
Same read-out and setting: as for `O=C(NCc1ccccc1C(F)(F)F)c1ccc2c(ccn2Cc2cccc(F)c2)c1`, the figure is 321 nM; as for `COc1ccc(CNC(=O)c2ccc3c(c2)[nH]c(=O)n3Cc2ccccc2)c(C(F)(F)F)c1`, 28 nM.
The same measure, in the same setting: then `O=C(NCc1ccccc1C(F)(F)F)c1ccc2c(c1)[nH]c(=O)n2Cc1ccccc1C(F)(F)F`, with 304 nM.
`COc1ccc(CNC(=O)c2ccc3c(ccn3Cc3cccc(F)c3)c2)c(C(F)(F)F)c1`: the IC50 in series [1] worked out at 310 nM. In addition, in series [2], the 50% effective concentration (EC50) (usually the concentration that produces a half-maximal response) came out at 850 nM.
On to `O=C(NCc1ccccc1C(F)(F)F)c1ccc2c(c1)[nH]c(=O)n2Cc1ccc(Cl)cc1Cl`, for which the IC50 in series [1] worked out at 100 nM. The result in series [3] was inactive.
As to `COc1ccc(CNC(=O)c2ccc3c(c2)[nH]c(=O)n3Cc2cccc(F)c2)c(C(F)(F)F)c1`, the IC50 in series [1] amounted to 29 nM.
`O=C(NCc1ccccc1C(F)(F)F)c1ccc2c(c1)[nH]c(=O)n2Cc1ccccc1F`: the IC50 in series [1] was 55 nM. In addition, the outcome in series [3] was inactive.
Turning to `O=C(NCc1ccccc1C(F)(F)F)c1ccc2c(c1)[nH]c(=O)n2Cc1ccc(Cl)cc1`, the IC50 in series [1] was 197 nM. Further, the outcome in series [3] was inactive.
In the case of `O=C(NCc1ccccc1C(F)(F)F)c1ccc2c(c1)[nH]c(=O)n2Cc1cccc(Cl)c1`, in series [1], the IC50 is 87 nM.
`COc1ccccc1Cn1c(=O)[nH]c2cc(C(=O)NCc3ccccc3C(F)(F)F)ccc21`: in series [1], the IC50 came out at 319 nM. Also, the result in series [3] was inactive.
On to `O=C(NCc1ccc(NC(=O)C(F)(F)F)cc1C(F)(F)F)c1ccc2c(ccn2Cc2cccc(F)c2)c1`, for which, in series [1], the IC50 is 5 nM.
Same read-out and setting: then `O=C(NCc1ccccc1C(F)(F)F)c1ccc2c(c1)[nH]c(=O)n2Cc1ccc(Cl)c(Cl)c1`, with 1090 nM.
For the compound `O=C(NCc1ccccc1C(F)(F)F)c1ccc2c(c1)[nH]c(=O)n2Cc1ccccn1`, the IC50 in series [1] was 456 nM. Also, the result in series [3] was inactive.
Consider `CSCc1ccc(CNC(=O)c2ccc3c(ccn3Cc3cccc(F)c3)c2)c(C(F)(F)F)c1`, for which the IC50 in series [1] was 6 nM. The compound also yielded an EC50 in series [2] of 1430 nM.
Taken in the same sequence, the figures for `O=C(NCc1ccc(NS(=O)(=O)C2CC2)cc1C(F)(F)F)c1ccc2[nH]ccc2c1` were 29 nM and 1480 nM.
As for `CCS(=O)(=O)Nc1ccc(CNC(=O)c2ccc3c(ccn3Cc3cccc(F)c3)c2)c(C(F)(F)F)c1`, the concentration for half-maximal inhibition (IC50) in series [1] came to 3 nM. For the same compound, a half-maximal effect in series [2] (EC50) was put at 370 nM.
For `O=C(NCc1ccccc1C(F)(F)F)c1ccc2c(c1)[nH]c(=O)n2Cc1ccc(F)cc1`, in series [1], the IC50 amounted to 142 nM. Moreover, the outcome in series [3] was inactive.
As for `O=C(NCc1ccccc1C(F)(F)F)c1ccc2c(c1)[nH]c(=O)n2Cc1ccccc1`, the IC50 in series [1] was 82 nM.
For the compound `CC(C)S(=O)(=O)n1ccc2cc(C(=O)NCc3ccc(NS(=O)(=O)C4CC4)cc3C(F)(F)F)ccc21`, the IC50 in series [1] worked out at 2 nM. In series [2], this compound gave an EC50 of 1050 nM.
Consider `CC(C)Cn1ccc2cc(C(=O)NCc3ccc(NS(=O)(=O)C4CC4)cc3C(F)(F)F)ccc21`, for which the half-life (in general, the time needed for the level to fall by half in the phase considered) at 10 µM in series [4] was found to be 53 min; in series [5], 76 min; in series [6], 41 min. For the same compound, the IC50 in series [1] is 2 nM.
Turning to `CS(=O)(=O)Cc1ccc(CNC(=O)c2ccc3c(ccn3Cc3cccc(F)c3)c2)c(C(F)(F)F)c1`, in series [1], the IC50 is 6 nM. In series [2], this compound yielded a concentration giving a half-maximal response (EC50) of 1350 nM.
Turning to `O=C(NCc1ccccc1C(F)(F)F)c1ccc2c(cnn2Cc2cccc(F)c2)c1`, the IC50 in series [1] was 36 nM. Also, the EC50 in series [2] stood at 1600 nM.
`O=C(NCc1ccccc1C(F)(F)F)c1ccc2c(c1)[nH]c(=O)n2Cc1ccccc1Cl`: in series [1], the IC50 was 171 nM.
In the case of `O=C(NCc1ccccc1C(F)(F)F)c1ccc2c(c1)[nH]c(=O)n2Cc1cc(F)cc(F)c1`, in series [1], the half-maximal inhibitory concentration (IC50) was found to be 48 nM.
Regarding `CN(C)CCn1ccc2cc(C(=O)NCc3ccc(NS(=O)(=O)C4CC4)cc3C(F)(F)F)ccc21`, the half-inhibitory concentration (IC50) in series [1] stood at 28 nM. For the same compound, the result in series [3] was inactive.
As for `O=C(NCc1ccccc1C(F)(F)F)c1ccc2c(c1)[nH]c(=O)n2CC1CCCCC1`, the IC50 in series [1] turned out to be 322 nM.
The same measure, in the same setting: as for `O=C(NCc1ccccc1C(F)(F)F)c1ccc2c(c1)ncn2Cc1cccc(F)c1`, the figure is 107 nM.
Take `CC(C)n1ccc2cc(C(=O)NCc3ccc(NS(=O)(=O)C4CC4)cc3C(F)(F)F)ccc21`: in series [1], the IC50 was determined as 5 nM. Moreover, the concentration for a half-maximal effect (EC50) in series [2] was 490 nM.
As for `COc1ccc(CNC(=O)c2ccc3c(c2)ncn3Cc2cccc(F)c2)c(C(F)(F)F)c1`, in series [1], the IC50 stood at 40 nM.
With `COc1ccc(CNC(=O)c2ccc3c(cnn3Cc3cccc(F)c3)c2)c(C(F)(F)F)c1`, the IC50 in series [1] came to 22 nM. The compound also came in with an EC50 in series [2] of 1590 nM.
Taken in the same sequence, the figures for `O=C(NCc1ccccc1C(F)(F)F)c1ccc2c(c1)[nH]c(=O)n2Cc1cccc(F)c1` were 153 nM and 120 nM.
